Test results published in patent US7868005B2, “Pyrazinyl substituted piperazine-piperidines with CXCR3 antagonist activity” (Schering Corporation, priority 2005, dated 2011).

What follows are compounds tested against T1, human CXCR3 (N-delta 4) (Homo sapiens, UniProt P49682) (assay: Human CXCR3 (N-delta 4) Scintillation Proximity Assay (SPA), [125I] IP-10 binding to Ba/F3-hCXCR3 membranes). Settings: IC50 rating, Table 1; read-out: IC50.
T1 construct: CD8 leader (N); Flag; expressed in transfected cells; membranes prepared
T1 sequence (P49682 5-368 limits assumed): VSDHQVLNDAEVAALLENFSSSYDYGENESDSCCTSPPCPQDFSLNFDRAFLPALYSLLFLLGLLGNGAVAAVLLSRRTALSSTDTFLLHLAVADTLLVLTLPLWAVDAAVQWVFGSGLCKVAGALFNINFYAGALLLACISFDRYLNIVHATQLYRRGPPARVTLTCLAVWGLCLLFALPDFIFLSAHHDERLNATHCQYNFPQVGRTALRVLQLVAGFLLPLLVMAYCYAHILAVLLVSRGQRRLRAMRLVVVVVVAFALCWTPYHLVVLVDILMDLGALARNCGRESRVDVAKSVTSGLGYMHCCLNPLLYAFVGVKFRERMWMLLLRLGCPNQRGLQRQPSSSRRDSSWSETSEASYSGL

| Structure (SMILES) | IC50 |
| --- | --- |
| CC[C@H]1CN(c2nc(N)c(C(=O)NCCO)nc2Cl)CCN1C1CCN(Cc2cc(F)c(F)c(F)c2O)CC1 [compound 181] | 25 to 100 nM |
| CC[C@H]1CN(c2nc(N)c(C(=O)NCCO)nc2Cl)CCN1C1CCN([C@H](CO)c2ccc(F)c(F)c2)CC1 [compound 182] | 25 to 100 nM |
| CC[C@H]1CN(c2nc(N)c(C(=O)NCCO)nc2Cl)CCN1C1CCN(Cc2ccc(F)c(F)c2N2CCOCC2)CC1 [compound 183] | 25 to 100 nM |
| CC[C@H]1CN(c2nc(N)c(C(=O)NCCO)nc2Cl)CCN1C1CCN(C(C(=O)O)c2ccc(Cl)cc2)CC1 (stereo partly drawn) [compound 184] | 25 to 100 nM |
| CC[C@H]1CN(c2nc(N)c(C(=O)NCCO)nc2Cl)CCN1C1CCN([C@@H](C(=O)OC)c2ccc(F)c(F)c2)CC1 [compound 185] | 25 to 100 nM |
| CC[C@H]1CN(c2nc(N)c(C(=O)NCCO)nc2Cl)CCN1C1CCN(Cc2c(O)cc(Cl)cc2Cl)CC1 [compound 186] | 25 to 100 nM |
| CC[C@H]1CN(c2nc(N)c(C(=O)NCCO)nc2Cl)CCN1C1CCN(C(CCOC)c2ccc(Cl)cc2)CC1 (stereo partly drawn) [compound 187] | 25 to 100 nM |
| CC[C@H]1CN(c2nc(N)c(C(=O)NCCO)nc2Cl)CCN1C1CCN(Cc2ccc(F)c(F)c2N2CCC(=O)C2)CC1 [compound 188] | 25 to 100 nM |
| CC[C@H]1CN(c2nc(N)c(C(=O)NCCO)nc2Cl)CCN1C1CCN(Cc2ccc(Cl)cc2O[C@H]2CCOC2)CC1 [compound 189] | 25 to 100 nM |
| CC[C@H]1CN(c2nc(N)c(C(=O)NCCO)nc2Cl)CCN1C1CCN(Cc2ccc(C#N)cc2OCC(=O)NCCO)CC1 [compound 191] | 25 to 100 nM |
| CC[C@H]1CN(c2nc(N)c(C(=O)NCCO)nc2Cl)CCN1C1CCN([C@H](C(=O)OC)c2ccc(Cl)cc2)CC1 [compound 192] | > 100 nM |
| CC[C@H]1CN(c2nc(N)c(C(=O)NCCO)nc2Cl)CCN1C1CCN(Cc2ccc(C#N)cc2OCCN2CCCC2=O)CC1 [compound 193] | > 100 nM |
| CC[C@H]1CN(c2nc(N)c(C(=O)NCCO)nc2Cl)CCN1C1CCN(Cc2ccc(Cl)cc2C(C)C(=O)OC)CC1 (stereo partly drawn) [compound 194] | > 100 nM |
| CC[C@H]1CN(c2nc(N)c(C(=O)NCCO)nc2Cl)CCN1C1CCN(Cc2ccc(Cl)cc2OCCN2CCCC2=O)CC1 [compound 195] | > 100 nM |
| CC[C@H]1CN(c2nc(N)c(C(=O)NCCO)nc2Cl)CCN1C1CCN(Cc2ccc(Cl)cc2NS(C)(=O)=O)CC1 [compound 196] | > 100 nM |
| CC[C@H]1CN(c2nc(N)c(C(=O)NCCO)nc2Cl)CCN1C1CCN(Cc2ccc(Cl)cc2C(=O)N2CCOCC2)CC1 [compound 197] | > 100 nM |
| CC[C@H]1CN(c2nc(N)c(C(=O)NCCO)nc2Cl)CCN1C1CCN([C@H](C(=O)OC)c2ccc(F)c(F)c2)CC1 [compound 198] | > 100 nM |
| CC[C@H]1CN(c2nc(N)c(C(=O)NCCO)nc2Cl)CCN1C1CCN(C(CCN)c2ccc(Cl)cc2)CC1 (stereo partly drawn) [compound 199] | > 100 nM |
| CC[C@H]1CN(c2nc(N)c(C(=O)NCCO)nc2Cl)CCN1C1CCN([C@H](C(=O)OC)c2ccc(C#N)cc2)CC1 [compound 200] | > 100 nM |
| CC[C@H]1CN(c2nc(N)c(C(=O)NCCO)nc2Cl)CCN1C1CCN(Cc2c(F)cc(F)c(F)c2O)CC1 [compound 201] | > 100 nM |

| Structure (SMILES) | IC50 |
| --- | --- |
| CC[C@H]1CN(c2nc(N)c(C(=O)NCCO)nc2Cl)CCN1C1CCN(Cc2ccc(Cl)cc2C(C)C(=O)O)CC1 (stereo partly drawn) [compound 202] | > 100 nM |
| CC[C@H]1CN(c2nc(N)c(C(=O)NCCO)nc2Cl)CCN1C1CCN([C@H](C(=O)O)c2ccc(Cl)cc2)CC1 [compound 203] | > 100 nM |
| CC[C@H]1CN(c2nc(N)c(C(=O)NCCO)nc2Cl)CCN1C1CCN(C(Cc2nn[nH]n2)c2ccc(Cl)cc2)CC1 (stereo partly drawn) [compound 204] | > 100 nM |
| CC[C@H]1CN(c2nc(N)c(C(=O)NCCO)nc2Cl)CCN1C1CCN(Cc2ccc(N3CCOCC3)c(F)c2F)CC1 [compound 205] | > 100 nM |
| CC[C@H]1CN(c2nc(N)c(C(=O)NCCO)nc2Cl)CCN1C1CCN(C(C(=O)OC)c2ccc(Cl)cc2OC)CC1 (stereo partly drawn) [compound 206] | > 100 nM |
| CC[C@H]1CN(c2nc(N)c(C(=O)NCCO)nc2Cl)CCN1C1CCN(C(c2ccc(Cl)cc2)c2nccs2)CC1 (stereo partly drawn) [compound 207] | > 100 nM |
| CC[C@H]1CN(c2nc(N)c(C(=O)NCc3nccs3)nc2Cl)CCN1C1CCN(Cc2ccc(C#N)cc2)CC1 [compound 208] | > 100 nM |
| CC[C@H]1CN(c2nc(N)c(C(=O)N3CC[C@H](NS(C)(=O)=O)C3)nc2Cl)CCN1C1CCN(Cc2ccc(Cl)cc2)CC1 [compound 209] | > 100 nM |
| CC[C@H]1CN(c2nc(N)c(C(=O)N[C@@H]3CCCNC3=O)nc2Cl)CCN1C1CCN(Cc2ccc(C#N)cc2)CC1 [compound 210] | > 100 nM |
| CC[C@H]1CN(c2nc(N)c(C(=O)N[C@H]3CCN(C)C3=O)nc2Cl)CCN1C1CCN(Cc2ccc(C#N)cc2)CC1 [compound 211] | > 100 nM |
| CC[C@H]1CN(c2nc(N)c(C(=O)NCc3cc(O)no3)nc2Cl)CCN1C1CCN(Cc2ccc(Cl)cc2)CC1 [compound 212] | > 100 nM |
| CC[C@H]1CN(c2nc(N)c(C(=O)NCC(N)=O)nc2Cl)CCN1C1CCN(Cc2ccc(Cl)cc2)CC1 [compound 213] | 25 to 100 nM |
| CC[C@H]1CN(c2nc(N)c(C(=O)NCC(=O)OC)nc2Cl)CCN1C1CCN(Cc2ccc(Cl)cc2)CC1 [compound 214] | < 25 nM |
| CC[C@H]1CN(c2nc(N)c(C(=O)NCC(F)(F)F)nc2Cl)CCN1C1CCN(Cc2ccc(Cl)cc2)CC1 [compound 216] | < 25 nM |
| CC[C@H]1CN(c2nc(N)c(C(=O)NCC(C)O)nc2Cl)CCN1C1CCN(Cc2ccc(Cl)cc2)CC1 (stereo partly drawn) [compound 217] | < 25 nM |
| CC[C@H]1CN(c2nc(N)c(C(=O)NC[C@@H](C)O)nc2Cl)CCN1C1CCN(Cc2ccc(Cl)cc2[C@H](O)C(N)=O)CC1 [compound 218] | < 25 nM |
| CC[C@H]1CN(c2nc(N)c(C(=O)NC[C@@H](C)O)nc2Cl)CCN1C1CCN(Cc2ccc(Cl)cc2C(O)C(=O)OC)CC1 (stereo partly drawn) [compound 219] | < 25 nM |
| CC[C@H]1CN(c2nc(N)c(C(=O)NC[C@@H](C)O)nc2Cl)CCN1C1CCN(Cc2ccc(Cl)cc2CC#N)CC1 [compound 220] | < 25 nM |
| CC[C@H]1CN(c2nc(N)c(C(=O)NC[C@@H](C)O)nc2Cl)CCN1C1CCN(Cc2ccc(C#N)cc2)CC1 [compound 221] | < 25 nM |
| CC[C@H]1CN(c2nc(N)c(C(=O)NC[C@@H](C)O)nc2Cl)CCN1C1CCN(Cc2ccc(Cl)cc2[C@@H](O)C(N)=O)CC1 [compound 222] | < 25 nM |

Now from value to compound:

| IC50 | Structure (SMILES) |
| --- | --- |
| < 25 nM | CC[C@H]1CN(c2nc(N)c(C(=O)NC[C@@H](C)O)nc2Cl)CCN1C1CCN(Cc2ccc(Cl)cc2CCNS(C)(=O)=O)CC1 [compound 223] |
| 25 to 100 nM | CC[C@H]1CN(c2nc(N)c(C(=O)NC[C@@H](C)O)nc2Cl)CCN1C1CCN(Cc2ccc(Cl)cc2CCNC(C)=O)CC1 [compound 224] |
| > 100 nM | CC[C@H]1CN(c2nc(N)c(C(=O)NCCCNS(=O)(=O)C(F)(F)F)nc2Cl)CCN1C1CCN(Cc2ccc(C#N)cc2)CC1 [compound 225] |
| > 100 nM | CC[C@H]1CN(c2nc(N)c(C(=O)NCCCNS(C)(=O)=O)nc2Cl)CCN1C1CCN(Cc2ccc(C#N)cc2)CC1 [compound 226] |
| 25 to 100 nM | CC[C@H]1CN(c2nc(N)c(C(=O)NCCCO)nc2Cl)CCN1C1CCN(Cc2ccc(Cl)cc2)CC1 [compound 227] |
| < 25 nM | CC[C@H]1CN(c2nc(N)c(C(=O)NCCC#N)nc2Cl)CCN1C1CCN(Cc2ccc(C#N)cc2)CC1 [compound 228] |
| < 25 nM | CC[C@H]1CN(c2nc(N)c(C(=O)NCCNc3ncccn3)nc2Cl)CCN1C1CCN(Cc2ccc(Cl)cc2)CC1 [compound 229] |
| < 25 nM | CC[C@H]1CN(c2nc(N)c(C(=O)NCCNC(C)=O)nc2Cl)CCN1C1CCN(Cc2ccc(Cl)cc2)CC1 [compound 230] |
| < 25 nM | CC[C@H]1CN(c2nc(N)c(C(=O)NCCNC(N)=O)nc2Cl)CCN1C1CCN(C(CO)c2ccc(Cl)cc2)CC1 (stereo partly drawn) [compound 231] |
| 25 to 100 nM | CC[C@H]1CN(c2nc(N)c(C(=O)NCCNC(N)=O)nc2Cl)CCN1C1CCN(C(CO)c2ccc(C#N)cc2)CC1 (stereo partly drawn) [compound 232] |
| < 25 nM | CC[C@H]1CN(c2nc(N)c(C(=O)NCCN)nc2Cl)CCN1C1CCN(Cc2ccc(Cl)cc2)CC1 [compound 233] |
| 25 to 100 nM | CC[C@H]1CN(c2nc(N)c(C(=O)NCCN)nc2Cl)CCN1C1CCN(Cc2ccc(Cl)cc2C#N)CC1 [compound 234] |
| > 100 nM | CC[C@H]1CN(c2nc(N)c(C(=O)NCCNC(=O)OC(C)(C)C)nc2Cl)CCN1C1CCN(Cc2ccc(Cl)cc2C#N)CC1 [compound 235] |
| > 100 nM | CC[C@H]1CN(c2nc(N)c(C(=O)NCCN/C(N)=N/C#N)nc2Cl)CCN1C1CCN(Cc2ccc(Cl)cc2C#N)CC1 [compound 236] |
| > 100 nM | CC[C@H]1CN(c2nc(N)c(C(=O)NCCNS(=O)(=O)c3cn(C)cn3)nc2Cl)CCN1C1CCN(Cc2ccc(C#N)cc2)CC1 [compound 237] |
| < 25 nM | CC[C@H]1CN(c2nc(N)c(C(=O)NCCNS(=O)(=O)C(F)(F)F)nc2Cl)CCN1C1CCN(Cc2ccc(Cl)cc2)CC1 [compound 238] |
| < 25 nM | CC[C@H]1CN(c2nc(N)c(C(=O)NCCNS(=O)(=O)C(F)(F)F)nc2Cl)CCN1C1CCN(Cc2ccc(C#N)cc2)CC1 [compound 239] |
| < 25 nM | CC[C@H]1CN(c2nc(N)c(C(=O)NCCNS(=O)(=O)C(F)(F)F)nc2Cl)CCN1C1CCN(Cc2ccc(F)c(F)c2N2CC[C@@H](O)C2)CC1 [compound 240] |
| < 25 nM | CC[C@H]1CN(c2nc(N)c(C(=O)NCCNS(=O)(=O)C(F)(F)F)nc2Cl)CCN1C1CCN(Cc2ccc(Cl)cc2N2CC[C@@H](O)C2)CC1 [compound 241] |
| 25 to 100 nM | CC[C@H]1CN(c2nc(N)c(C(=O)NCCNS(=O)(=O)CC)nc2Cl)CCN1C1CCN(Cc2ccc(C#N)cc2)CC1 [compound 242] |
